Patent US20160228434A1, “TREATMENT OF DISEASES CAUSED BY ABNORMAL LYMPHOCYTE FUNCTION WITH AN HDAC6 INHIBITOR” (priority 2013, published 2016)
Entries after “also recorded” stand apart in the source; their conditions may differ.

System: sera TGF-β and IL-1β
Experiment: Sera IL-1β and TGF-β levels by ELISA in treated NZB/W mice
Format: in vivo
Procedure: NZB/W mice were injected intraperitoneally 5 days/week with the vehicle control (DMSO), ACY-738 treatment at 5 mg/kg (low-dose), or ACY-738 treatment at 20 mg/kg (high-dose) beginning at 22-weeks-of-age until euthanization at 38 weeks-of-age. ACY-738 was received from Acetylon Pharmaceuticals for use in all studies. Proteinuria and weight were measured every 2 weeks and blood was collected every four weeks for sera analysis. Proteinuria was measured by a standard semi-quantitative test using Siemens Uristix dipsticks (Siemens Healthcare, Deerfield, Ill., USA). Results were quantified according to the manufacturer's instructions and scored as follows: dipstick reading of 0 mg/dL=0, trace=1, 30-100 mg/dL=2, 100-300 mg/dL=3, 300-2000 mg/dL=4, and 2000+ mg/dL=5.
IL-1β and TGF-β levels were measured from the sera by ELISA according to the manufacturer's protocol (eBioscience, San Diego, Calif., USA). The plate was read at 450 nm on a microplate spectrophotometer.
IL-1β and TGF-β levels in the sera of NZB/W mice were measured every 4 weeks starting from 22 weeks until euthanization at 38 weeks-of-age (FIG. 8 A-B). At 22 weeks-of-age there were no significant differences in cytokine levels amongst the three groups. As the NZB/W mice aged, sera levels of TGF-β decreased whereas levels of IL-1β increased (FIG. 8 A-B).

## O=C(NO)c1cnc(NC2(c3ccccc3)CC2)nc1 [ACY-738]
38-week-old NZB/W mice, low and high dose, levels rise with age
  sera IL-1β level: significantly decreased; also recorded: attenuated the increase
NZB/W mice, 22 to 38 weeks-of-age, 5 and 20 mg/kg, levels fall in vehicle mice with age
  sera TGF-β level: reverse this trend in a dose-dependent manner; also recorded: attenuated the reduction
